Data published in patent US7763627B2, “Tie-2 modulators and methods of use” (Exelixis, Inc., priority 2003, dated 2010).
pIC50: −log10 of the molar value.

molecular target: Tie-2 (Homo sapiens, UniProt Q02763); assay: Tie-2 tyrosine kinase inhibition (ATP consumption by luciferase/luciferin chemiluminescence or 33P-ATP incorporation into pEY substrate); format: biochemical; conditions: human enzyme Tie-2; inhibition given as class symbol
Procedure: Tyrosine kinase activity is determined by 1) measurement of kinase-dependent ATP consumption by in the presence of a generic substrate such as polyglutamine, tyrosin (pEY), by luciferase/luciferin-mediated chemiluminescence or; 2) incorporation of radioactive phosphate derived from ^33P-ATP into a generic substrate which has been adsorbed onto the well surface of polystyrene microtiter plates. Phosphorylated substrate products are quantified by scintillation spectrometry.
Inhibition is indicated as IC50 with following key: A=IC50 less than 50 nM, B=IC50 greater than 50 nM, but less than or equal to 1000 nM, C=IC50 greater than 1000 nM, but less than 10,000 nM, and D=IC50 10,000 nM or greater. The abbreviation for human enzyme, Tie-2, is defined as tyrosine kinase with immunoglobulin and EGF repeats.

Sequence of Tie-2 (Q02763 23-1124): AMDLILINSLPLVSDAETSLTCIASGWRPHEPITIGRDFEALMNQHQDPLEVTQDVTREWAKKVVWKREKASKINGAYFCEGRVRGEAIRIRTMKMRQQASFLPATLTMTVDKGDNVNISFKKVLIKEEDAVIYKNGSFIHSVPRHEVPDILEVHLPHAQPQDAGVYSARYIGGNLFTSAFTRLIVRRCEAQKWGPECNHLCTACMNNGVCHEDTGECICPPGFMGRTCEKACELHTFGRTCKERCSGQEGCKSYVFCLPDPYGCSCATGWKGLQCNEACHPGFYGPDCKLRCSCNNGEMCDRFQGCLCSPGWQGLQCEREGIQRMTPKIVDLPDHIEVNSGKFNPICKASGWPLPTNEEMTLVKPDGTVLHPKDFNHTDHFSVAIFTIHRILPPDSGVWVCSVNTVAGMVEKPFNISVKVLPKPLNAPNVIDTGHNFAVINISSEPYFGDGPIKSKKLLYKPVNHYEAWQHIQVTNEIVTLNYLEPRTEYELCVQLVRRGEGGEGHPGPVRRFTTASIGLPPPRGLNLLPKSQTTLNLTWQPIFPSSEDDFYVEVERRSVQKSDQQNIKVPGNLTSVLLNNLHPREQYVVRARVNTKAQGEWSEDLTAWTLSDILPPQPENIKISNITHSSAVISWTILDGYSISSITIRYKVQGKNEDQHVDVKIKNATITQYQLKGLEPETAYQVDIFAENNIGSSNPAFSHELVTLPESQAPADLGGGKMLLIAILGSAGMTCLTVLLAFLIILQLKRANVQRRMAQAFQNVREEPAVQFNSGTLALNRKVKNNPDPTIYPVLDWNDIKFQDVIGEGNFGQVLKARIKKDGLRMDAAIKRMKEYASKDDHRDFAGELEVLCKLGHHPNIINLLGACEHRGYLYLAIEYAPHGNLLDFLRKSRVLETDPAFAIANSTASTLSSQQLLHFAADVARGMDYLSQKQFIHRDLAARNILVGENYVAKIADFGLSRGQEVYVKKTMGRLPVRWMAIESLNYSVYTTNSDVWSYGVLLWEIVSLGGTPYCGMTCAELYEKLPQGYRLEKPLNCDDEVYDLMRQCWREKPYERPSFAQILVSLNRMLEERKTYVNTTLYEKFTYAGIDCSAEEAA

| SMILES | pIC50 |
| --- | --- |
| COc1cc2nc(-c3ccncc3)nc(N[C@H]3c4ccccc4C[C@H]3O)c2cc1OC [Compound 46, (1S,2R)-1-{[6,7-bis(methyloxy)-2-pyridin-4-ylquinazolin-4-yl]amino}-2,3-dihydro-1H-inden-2-ol] | 6.00 to 7.30 |
| OC1CCCN(c2nc(-c3ccncc3)nc3ccccc23)C1 (stereo not shown) [Compound 47, 1-(2-pyridin-4-ylquinazolin-4-yl)piperidin-3-ol] | ≤ 5.00 |
| O[C@@H]1Cc2ccccc2[C@@H]1Nc1nc(-c2ccncc2)nc2cc(C(F)(F)F)ccc12 [Compound 48, (1S,2R)-1-{[2-pyridin-4-yl-7-(trifluoromethyl)quinazolin-4-yl]amino}-2,3-dihydro-1H-inden-2-ol] | 6.00 to 7.30 |
| COc1ccc(-c2nc(N[C@H]3c4ccccc4C[C@H]3O)c3ccccc3n2)cn1 [Compound 49, (1S,2R)-1-({2-[6-(methyloxy)pyridin-3-yl]quinazolin-4-yl}amino)-2,3-dihydro-1H-inden-2-ol] | 5.00 to 6.00 |
| c1ccc2c(N[C@H]3CCCNC3)nc(-c3ccncc3)nc2c1 [Compound 50, N-[(3S)-piperidin-3-yl]-2-pyridin-4-ylquinazolin-4-amine] | ≤ 5.00 |
| Cc1ccc2c(N[C@H]3c4ccccc4C[C@H]3O)nc(-c3ccncc3)nc2c1 [Compound 51, (1S,2R)-1-[(7-methyl-2-pyridin-4-ylquinazolin-4-yl)amino]-2,3-dihydro-1H-inden-2-ol] | > 7.30 |
| COc1ncc(-c2nc(N[C@H]3c4ccccc4C[C@H]3O)c3ccccc3n2)c(OC)n1 [Compound 52, (1S,2R)-1-({2-[2,4-bis(methyloxy)pyrimidin-5-yl]quinazolin-4-yl}amino)-2,3-dihydro-1H-inden-2-ol] | ≤ 5.00 |
| CC(C)[C@H](CO)Nc1nc(-c2ccncc2)nc2ccccc12 [Compound 53, (2R)-3-methyl-2-[(2-pyridin-4-ylquinazolin-4-yl)amino]butan-1-ol] | ≤ 5.00 |
| CC(C)[C@@H](CO)Nc1nc(-c2ccncc2)nc2ccccc12 [Compound 54, (2S)-3-methyl-2-[(2-pyridin-4-ylquinazolin-4-yl)amino]butan-1-ol] | 5.00 to 6.00 |
| OC[C@@H](Nc1nc(-c2ccncc2)nc2ccccc12)c1ccccc1 [Compound 55, (2S)-2-phenyl-2-[(2-pyridin-4-ylquinazolin-4-yl)amino]ethanol] | 5.00 to 6.00 |
| OC[C@H](Nc1nc(-c2ccncc2)nc2ccccc12)c1ccccc1 [Compound 56, (2R)-2-phenyl-2-[(2-pyridin-4-ylquinazolin-4-yl)amino]ethanol] | 5.00 to 6.00 |
| O[C@@H]1Cc2ccccc2[C@@H]1Nc1ccnc(-c2ccncc2)n1 [Compound 57, (1S,2R)-1-[(2-pyridin-4-ylpyrimidin-4-yl)amino]-2,3-dihydro-1H-inden-2-ol] | 6.00 to 7.30 |
| O[C@@H]1Cc2ccccc2[C@@H]1Nc1nc(-c2cnccn2)nc2ccccc12 [Compound 58, (1S,2R)-1-[(2-pyrazin-2-ylquinazolin-4-yl)amino]-2,3-dihydro-1H-inden-2-ol] | ≤ 5.00 |
| Nc1ccncc1-c1nc(N[C@H]2c3ccccc3C[C@H]2O)c2ccccc2n1 [Compound 59, (1S,2R)-1-{[2-(4-aminopyridin-3-yl)quinazolin-4-yl]amino}-2,3-dihydro-1H-inden-2-ol] | ≤ 5.00 |
| OC[C@@H](Cc1ccccc1)Nc1nc(-c2ccncc2)nc2ccccc12 [Compound 60, (2R)-3-phenyl-2-[(2-pyridin-4-ylquinazolin-4-yl)amino]propan-1-ol] | ≤ 5.00 |
| OC[C@H](Cc1ccccc1)Nc1nc(-c2ccncc2)nc2ccccc12 [Compound 61, (2S)-3-phenyl-2-[(2-pyridin-4-ylquinazolin-4-yl)amino]propan-1-ol] | 5.00 to 6.00 |
| OCCN(Cc1ccccc1)c1nc(-c2ccncc2)nc2ccccc12 [Compound 62, 2-[(phenylmethyl)(2-pyridin-4-ylquinazolin-4-yl)amino]ethanol] | 5.00 to 6.00 |
| Nc1nccc(-c2nc(N[C@H]3c4ccccc4C[C@H]3O)c3ccccc3n2)n1 [Compound 63, (1S,2R)-1-{[2-(2-aminopyrimidin-4-yl)quinazolin-4-yl]amino}-2,3-dihydro-1H-inden-2-ol] | 6.00 to 7.30 |
| Oc1ccc(-c2nc(N[C@H]3c4ccccc4C[C@H]3O)c3ccccc3n2)cn1 [Compound 64, 5-(4-{[(1S,2R)-2-hydroxy-2,3-dihydro-1H-inden-1-yl]amino}quinazolin-2-yl)pyridin-2-ol] | ≤ 5.00 |
| CSc1nccc(-c2nc(N[C@H]3c4ccccc4C[C@H]3O)c3ccccc3n2)n1 [Compound 65, (1S,2R)-1-({2-[2-(methylthio)pyrimidin-4-yl]quinazolin-4-yl}amino)-2,3-dihydro-1H-inden-2-ol] | ≤ 5.00 |
| OCCN1CCN(Nc2nc(-c3ccncc3)nc3ccccc23)CC1 [Compound 66, 2-{-4-[(2-pyridin-4-ylquinazolin-4-yl)amino]piperazin-1-yl}ethanol] | ≤ 5.00 |
| c1ccc2c(NN3CCCCC3)nc(-c3ccncc3)nc2c1 [Compound 67, N-piperidin-1-yl-2-pyridin-4-ylquinazolin-4-amine] | ≤ 5.00 |
